Holding throughout (assay type): functional
The test system of assay [1] is Escherichia coli. The assay can be described thus: Antibacterial activity against Escherichia coli BL21(DE3).
A further assay has as its system Pseudomonas aeruginosa. The experiment in a line: Antibacterial activity against Pseudomonas aeruginosa ATCC 27853.
The subject of assay [2] is Escherichia coli. The experiment in a line: Antibacterial activity against Escherichia coli BL21(DE3) expressing Pseudomonas aeruginosa APH(3')-2b.

For GENTAMICIN, the minimum inhibitory concentration (MIC) turned out to be 6 µg/mL in the assay with Escherichia coli [1], 2 µg/mL against Pseudomonas aeruginosa and 6 µg/mL against Escherichia coli [2].

By MIC is commonly meant the least concentration at which growth counts as inhibited.

These data come from ChEMBL document CHEMBL1142160, “Overexpression and initial characterization of the chromosomal aminoglycoside 3'-O-phosphotransferase APH(3')-IIb from Pseudomonas aeruginosa” (2007).
